# Data from patent publication US20120015988A1, “Sulfone Compounds Which Modulate The CB2 Receptor” (BOEHRINGER INGELHEIM INTERNATIONAL GMBH, priority 2008, published 2012).
# Molecular target: T1, human CB2R (Homo sapiens, UniProt P34972)
# T1 construct: host or cells: CHO cells
# Experiment: CB2R mediated modulation of cAMP synthesis
# Type: cell-based
# Conditions: CHO cells expressing human CB2R; concentration at which 50% of the forskolin-stimulated cAMP synthesis was inhibited; 100% defined by 1 uM CP55940; read-out: CB2 EC50
# Procedure: B. CB2R Mediated Modulation of Camp Synthesis:
# Compounds of the invention were evaluated for their CB2 agonist or inverse agonistic activity in accordance with the following experimental method.
# CHO cells expressing human CB2R (Euroscreen) were plated at a density of 5000 cells per well in 384 well plates and incubated overnight at 37° C. After removing the media, the cells were treated with test compounds diluted in stimulation buffer containing 1 mM IBMX, 0.25% BSA and 10 uM Forskolin. The assay was incubated for 30 minutes at 37° C. Cells were lysed and the cAMP concentration was measured using DiscoverX-XS cAMP kit, following the manufacturer's protocol. In this setting, agonists will decrease forskolin induced production of cAMP while inverse agonists will further increase forskolin induced production of cAMP. EC50 of agonists were calculated as follows. The maximal amount of cAMP produced by forskolin compared to the level of cAMP inhibited by 1 uM CP55940 is defined as 100%. The EC50 value of each test compound was determined as the concentration at which 50% of the forskolin-stimulated cAMP synthesis was inhibited. Data was analyzed using a four-parameter logistic model. (Model 205 of XLfit 4.0).
# T1 sequence (P34972 whole entry): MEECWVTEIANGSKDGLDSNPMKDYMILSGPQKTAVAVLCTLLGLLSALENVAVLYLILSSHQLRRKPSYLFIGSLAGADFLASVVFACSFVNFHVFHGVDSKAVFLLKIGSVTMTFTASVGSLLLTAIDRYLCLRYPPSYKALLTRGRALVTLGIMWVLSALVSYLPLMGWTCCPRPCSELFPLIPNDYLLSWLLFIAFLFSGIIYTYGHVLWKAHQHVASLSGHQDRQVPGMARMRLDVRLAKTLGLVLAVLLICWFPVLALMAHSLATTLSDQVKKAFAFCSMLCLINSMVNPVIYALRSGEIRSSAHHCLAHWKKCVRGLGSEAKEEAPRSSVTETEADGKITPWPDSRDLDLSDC
row,SMILES,EC50 [µM]
1,"CC(C)(C)c1cc(-c2nnc(C(C)(C)S(=O)(=O)c3ccc(Cl)cc3)o2)on1 [Example 22, 2-(3-tert-butyl-isoxazol-5-yl)-5-[1-(4-chloro-benzenesulfonyl)-1-methyl-ethyl]-[1,3,4]oxadiazole]",0.0053
2,"CC(C)(C)c1cc(-c2nnc(C(C)(C)S(=O)(=O)CC3CCOCC3)o2)on1 [Example 24, 2-(3-tert-butyl-isoxazol-5-yl)-5-[1-methyl-1-(tetrahydro-pyran-4-ylmethanesulfonyl)-ethyl]-[1,3,4]oxadiazole]",0.048
3,"CC(C)(C)c1cc(-c2nnc(C(C)(C)S(=O)(=O)c3ccc(Cl)cc3)o2)no1 [Example 25, 2-(5-tert-butyl-isoxazol-3-yl)-5-[1-(4-chloro-benzenesulfonyl)-1-methyl-ethyl]-[1,3,4]oxadiazole]",0.0069
4,"Cn1nc(C(C)(C)C)cc1-c1nnc(C(C)(C)S(=O)(=O)c2ccc(Cl)cc2)o1 [Example 26, 2-(5-tert-butyl-2-methyl-2H-pyrazol-3-yl)-5-[1-(4-chloro-benzenesulfonyl)-1-methyl-ethyl]-[1,3,4]oxadiazole]",0.009
5,"CC(C)(C)c1cc(-c2nnc(C(C)(C)S(=O)(=O)c3ccc(F)cc3)o2)no1 [Example 27, 2-(5-tert-butyl-isoxazol-3-yl)-5-[1-(4-fluoro-benzenesulfonyl)-1-methyl-ethyl]-[1,3,4]oxadiazole]",0.035
6,"Cn1nc(C(C)(C)C)cc1-c1nnc(C(C)(C)S(=O)(=O)c2ccc(F)cc2)o1 [Example 28, 2-(5-tert-butyl-2-methyl-2H-pyrazol-3-yl)-5-[1-(4-fluoro-benzenesulfonyl)-1-methyl-ethyl]-[1,3,4]oxadiazole]",0.016
7,"CC(C)(C)c1cc(-c2nnc(C(C)(C)S(=O)(=O)C3CCOCC3)o2)on1 [Example 29, 2-(3-tert-butyl-isoxazol-5-yl)-5-[1-methyl-1-(tetrahydro-pyran-4-sulfonyl)-ethyl]-[1,3,4]oxadiazole]",0.027
8,"CC(C)(C)c1cc(-c2nnc(C(C)(C)S(=O)(=O)Cc3ccc(F)cc3)o2)on1 [Example 31, 2-(3-tert-butyl-isoxazol-5-yl)-5-[1-(4-fluoro-phenylmethanesulfonyl)-1-methyl-ethyl]-[1,3,4]oxadiazole]",0.162
9,"Cn1nc(C(C)(C)C)cc1-c1nnc(C2(S(=O)(=O)c3ccc(Cl)cc3)CC2)o1 [Example 32, 2-(5-tert-butyl-2-methyl-2H-pyrazol-3-yl)-5-[1-(4-chloro-benzenesulfonyl)-cyclopropyl]-[1,3,4]oxadiazole]",0.0037
10,"CC(C)(C)c1cc(-c2noc(C(C)(C)S(=O)(=O)c3ccc(F)cc3)n2)on1 [Example 34, 3-(3-tert-butyl-isoxazol-5-yl)-5-[1-(4-fluoro-benzenesulfonyl)-1-methyl-ethyl]-[1,2,4]oxadiazole]",0.0018
11,"CC(C)(C)c1cc(-c2noc(C(C)(C)S(=O)(=O)c3ccc(C(F)(F)F)cc3)n2)on1 [Example 35, 3-(3-tert-butyl-isoxazol-5-yl)-5-[1-methyl-1-(4-trifluoromethyl-benzenesulfonyl)-ethyl]-[1,2,4]oxadiazole]",0.0059
12,"CC(C)(C)c1cc(-c2noc(C(C)(C)S(=O)(=O)CC3CCOCC3)n2)on1 [Example 36, 3-(3-tert-butyl-isoxazol-5-yl)-5-[1-methyl-1-(tetrahydro-pyran-4-ylmethanesulfonyl)-ethyl]-[1,2,4]oxadiazole]",0.015
13,"CC(C)(C)c1cc(-c2nc(C(C)(C)S(=O)(=O)c3ccc(F)cc3)no2)on1 [Example 37, 5-(3-tert-butyl-isoxazol-5-yl)-3-[1-(4-fluoro-benzenesulfonyl)-1-methyl-ethyl]-[1,2,4]oxadiazole]",0.001
14,"CC(C)(C)c1cc(-c2nc(C(C)(C)S(=O)(=O)CC3CCOCC3)no2)on1 [Example 38, 5-(3-tert-butyl-isoxazol-5-yl)-3-[1-methyl-1-(tetrahydro-pyran-4-ylmethanesulfonyl)-ethyl]-[1,2,4]oxadiazole]",0.21
15,"CC(C)(C)c1cc(-c2nnc(C(C)(C)S(=O)(=O)c3ccc(F)cc3)s2)on1 [Example 39, 2-(3-tert-butyl-isoxazol-5-yl)-5-[1-(4-fluoro-benzenesulfonyl)-1-methyl-ethyl]-[1,3,4]thiadiazole]",0.0067
16,"CC(C)(C)c1cc(-c2nnc(C(C)(C)S(=O)(=O)c3ccc(F)cc3)s2)no1 [Example 40, 2-(5-tert-butyl-isoxazol-3-yl)-5-[1-(4-fluoro-benzenesulfonyl)-1-methyl-ethyl]-[1,3,4]thiadiazole]",0.017
17,"Cn1nc(C(C)(C)C)cc1-c1nnc(C(C)(C)S(=O)(=O)c2ccc(F)cc2)s1 [Example 41, 2-(5-tert-butyl-2-methyl-2H-pyrazol-3-yl)-5-[1-(4-fluoro-benzenesulfonyl)-1-methyl-ethyl]-[1,3,4]thiadiazole]",0.0025
18,"Cn1nc(C(C)(C)C)cc1-c1nnc(C(C)(C)S(=O)(=O)C2CCOCC2)s1 [Example 42, 2-(5-tert-butyl-2-methyl-2H-pyrazol-3-yl)-5-[1-methyl-1-(tetrahydro-pyran-4-sulfonyl)-ethyl]-[1,3,4]thiadiazole]",0.117
19,"CC(C)(CO)c1cc(-c2nnc(C(C)(C)S(=O)(=O)c3ccc(F)cc3)s2)on1 [Example 43, 2-(5-{5-[1-(4-fluoro-benzenesulfonyl)-1-methyl-ethyl]-[1,3,4]thiadiazol-2-yl}-isoxazol-3-yl)-2-methyl-propan-1-ol]",0.175
20,"Cn1nc(C(C)(C)C)cc1-c1nnc(C(C)(C)S(=O)(=O)c2ccc(F)cc2)[nH]1 [Example 44, 3-(5-tert-butyl-2-methyl-2H-pyrazol-3-yl)-5-[1-(4-fluoro-benzenesulfonyl)-1-methyl-ethyl]-4H-[1,2,4]triazole]",0.002
21,"CC(C)(C)c1cc(-c2nnc(C(C)(C)S(=O)(=O)c3ccc(F)cc3)[nH]2)on1 [Example 45, 3-(3-tert-butyl-isoxazol-5-yl)-5-[1-(4-fluoro-benzenesulfonyl)-1-methyl-ethyl]-4H-[1,2,4]triazole]",0.255
22,"Cn1nc(C(C)(C)C)cc1-c1nnc(C(C)(C)S(=O)(=O)CC2CCOCC2)[nH]1 [Example 46, 3-(5-tert-butyl-2-methyl-2H-pyrazol-3-yl)-5-[1-methyl-1-(tetrahydro-pyran-4-ylmethanesulfonyl)-ethyl]-4H-[1,2,4]triazole]",0.414
23,"Cn1nc(C(C)(C)C)cc1-c1nnc(C(C)(C)S(=O)(=O)Cc2ccc(F)cc2)[nH]1 [Example 48, 3-(5-tert-butyl-2-methyl-2H-pyrazol-3-yl)-5-[1-(4-fluoro-phenylmethanesulfonyl)-1-methyl-ethyl]-4H-[1,2,4]triazole]",0.129
24,"CC(C)(C)c1cc(-c2nnc(C(C)(C)S(=O)(=O)Cc3ccc(F)cc3)[nH]2)on1 [Example 49, 3-(3-tert-Butyl-isoxazol-5-yl)-5-[1-(4-fluoro-phenylmethanesulfonyl)-1-methyl-ethyl]-4H-[1,2,4]triazole]",0.293
25,"Cn1nc(C(C)(C)C)cc1-c1nnc(C(C)(C)S(=O)(=O)CC2CCC(O)CC2)[nH]1 (stereo not shown) [Example 51, 4-{2-[5-(5-tert-butyl-2-methyl-2H-pyrazol-3-yl)-4H-[1,2,4]triazol-3-yl]-propane-2-sulfonylmethyl}-cyclohexanol]",0.459
